According to PMC4907692, “Engineering vanilloid-sensitivity into the rat TRPV2 channel” (eLife, 2016):

Columns and labels:
Type in all cases: cell-based
Conditions in all cases: 100 nM RTx
TRPV1 S512F/M547L = target: T1, TRPV1 S512F/M547L (Rattus norvegicus, UniProt O35433, M547L/S512F); test: Two-electrode voltage-clamp in Xenopus oocytes, TRPV1 S512F/M547L
T1 construct: expressed in transfected cells; host or cells: Xenopus oocytes (cRNA injection)
Description: (§1) To further investigate the putative vanilloid binding pocket in TRPV1, we inspected the cryo-EM structure of TRPV1, looking for residues that are located nearby to the putative RTx density (Figure 1B; regions/residues highlighted in yellow) and that differ between TRPV1 and TRPV2 channels (Figure 3—figure supplement 1; regions highlighted in magenta). […] To quantify the contribution of each of these residues to TRPV1 channel activation by RTx under our experimental conditions, we mutated each to the corresponding residue in TRPV2. We then expressed each construct in oocytes and used the two electrode voltage-clamp technique to study activation by RTx and by the non-specific TRPV channel activator 2-APB. We recorded time courses for channel activation by each agonist while stepping the membrane potential from −60 to +60 mV every 3 s from a holding potential of 0 mV using an external recording solution containing 100 mM KCl (internal K^+ concentration in a healthy oocyte is 100 mM) (Figure 3A, left). We also recorded current-voltage (I-V) relations by stepping over a wider range of voltages in the absence and presence of activators, or in the presence of ruthenium red (RR), a non-specific inhibitor of TRP channels (Figure 3A, right). […]

TRPV1 S512F/E570Q = target: T2, TRPV1 S512F/E570Q (Rattus norvegicus, UniProt O35433, E570Q/S512F); test: Two-electrode voltage-clamp in Xenopus oocytes, TRPV1 S512F/E570Q
T2 construct: expressed in transfected cells; host or cells: Xenopus oocytes (cRNA injection)
Description: as §1

WT TRPV2 = target: T3, WT TRPV2 (Rattus norvegicus, UniProt Q9WUD2); test: Two-electrode voltage-clamp in Xenopus oocytes, WT TRPV2
T3 construct: expressed in transfected cells; host or cells: Xenopus oocytes (cRNA injection, pGEM-HE)
Description: as §1

TRPV2 F472S/L510T = target: T4, TRPV2 F472S/L510T (Rattus norvegicus, UniProt Q9WUD2, F472S/L510T); test: Two-electrode voltage-clamp in Xenopus oocytes, TRPV2 F472S/L510T
T4 construct: expressed in transfected cells; host or cells: Xenopus oocytes (cRNA injection)
Description: as §1

T4 sequence (Q9WUD2 whole entry F472S/L510T): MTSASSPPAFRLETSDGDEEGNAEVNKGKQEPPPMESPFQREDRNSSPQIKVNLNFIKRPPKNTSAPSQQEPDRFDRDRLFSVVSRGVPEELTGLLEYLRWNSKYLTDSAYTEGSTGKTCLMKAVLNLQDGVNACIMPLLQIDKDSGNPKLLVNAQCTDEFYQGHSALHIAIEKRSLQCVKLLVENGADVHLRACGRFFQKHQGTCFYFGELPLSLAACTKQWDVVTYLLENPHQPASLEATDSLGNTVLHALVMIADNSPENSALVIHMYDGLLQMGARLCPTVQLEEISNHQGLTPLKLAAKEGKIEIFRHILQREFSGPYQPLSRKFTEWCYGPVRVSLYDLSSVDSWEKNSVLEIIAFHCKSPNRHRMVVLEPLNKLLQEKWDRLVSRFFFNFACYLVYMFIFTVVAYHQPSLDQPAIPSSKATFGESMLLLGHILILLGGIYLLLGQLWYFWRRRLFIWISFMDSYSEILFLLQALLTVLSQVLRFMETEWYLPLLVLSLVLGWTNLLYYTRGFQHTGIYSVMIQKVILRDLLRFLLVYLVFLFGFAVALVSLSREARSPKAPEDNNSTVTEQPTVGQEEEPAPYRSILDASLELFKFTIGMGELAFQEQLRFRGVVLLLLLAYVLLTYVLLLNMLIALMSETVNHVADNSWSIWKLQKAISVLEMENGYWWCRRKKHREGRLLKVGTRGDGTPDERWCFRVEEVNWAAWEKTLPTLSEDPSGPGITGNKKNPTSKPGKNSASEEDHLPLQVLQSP
T3 sequence (Q9WUD2 whole entry): as the sequence (Q9WUD2 whole entry F472S/L510T) above, with S472F, T510L counted along it
T1 sequence (O35433 whole entry S512F/M547L): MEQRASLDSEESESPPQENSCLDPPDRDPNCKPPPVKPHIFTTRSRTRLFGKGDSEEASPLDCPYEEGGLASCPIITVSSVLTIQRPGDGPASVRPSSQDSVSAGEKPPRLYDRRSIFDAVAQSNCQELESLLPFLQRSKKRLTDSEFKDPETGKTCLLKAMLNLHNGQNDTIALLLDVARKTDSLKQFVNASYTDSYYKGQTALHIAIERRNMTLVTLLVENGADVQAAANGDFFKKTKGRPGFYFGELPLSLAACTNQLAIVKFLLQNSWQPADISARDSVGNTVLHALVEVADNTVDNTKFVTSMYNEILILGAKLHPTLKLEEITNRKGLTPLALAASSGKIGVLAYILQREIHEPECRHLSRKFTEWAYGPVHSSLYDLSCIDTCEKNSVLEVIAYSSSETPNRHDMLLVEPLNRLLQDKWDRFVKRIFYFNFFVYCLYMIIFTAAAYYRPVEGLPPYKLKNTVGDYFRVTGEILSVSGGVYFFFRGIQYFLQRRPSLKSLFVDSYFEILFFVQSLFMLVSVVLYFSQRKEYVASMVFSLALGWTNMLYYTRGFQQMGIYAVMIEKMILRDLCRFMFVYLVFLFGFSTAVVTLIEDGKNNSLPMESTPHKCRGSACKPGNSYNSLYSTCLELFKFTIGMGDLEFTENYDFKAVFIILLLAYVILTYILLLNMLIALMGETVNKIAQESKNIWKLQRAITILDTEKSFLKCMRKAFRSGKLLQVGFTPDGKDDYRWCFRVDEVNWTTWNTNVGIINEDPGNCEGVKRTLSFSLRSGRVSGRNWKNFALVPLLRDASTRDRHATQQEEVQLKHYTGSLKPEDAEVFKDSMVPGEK
T2 sequence (O35433 whole entry S512F/E570Q): as the sequence (O35433 whole entry S512F/M547L) above, with L547M, E570Q counted along it

C=C(C)[C@]12C[C@@H](C)[C@@]34O[C@](Cc5ccccc5)(O[C@@H]1[C@@H]3C=C(COC(=O)Cc1ccc(O)c(OC)c1)C[C@]1(O)C(=O)C(C)=C[C@@H]41)O2 [RTx, resiniferatoxin]
channel activation by RTx (TRPV1 S512F/M547L): lost sensitivity | channel activation by RTx (TRPV1 S512F/E570Q): retained RTx sensitivity | channel activation by RTx (WT TRPV2): completely insensitive | channel activation by RTx (TRPV2 F472S/L510T): sensitive to RTx
